In US5321045A, “Method and composition for the treatment of imflammatory conditions using thiosulphinic acid derivatives” (Boehringer Mannheim GmbH, priority 1987, dated 1994):

Assays:
[1] = tested on: allergen-induced asthma bronchiale; experiment: Protective action in allergen-induced asthma bronchiale of guinea pigs (ovalbumin inhalation); type: in vivo; details: FIGS. 4-6; dosage as in 1a); ovalbumin one percent, twice
Method: 1. Investigation of the asthma-protective action of compounds in vivo. There was used a mixture of compound 1) (identical with formula III on p.13 of the German text) and compound 2) (identical with formula IV on p.13 of the German text). The ratio of 1): 2) amounted to about 1:2.
For the investigation of the asthma-protective action in vivo, corresponding experiments were carried out with guinea pigs (Dorsch W. et al., Pflugers Arch. 391, page 263 (1981).
9 guinea pigs were--was described under 1a)--corresponding to a randomised crossover protocol, either fed with the active component in olive oil or with the carrier olive oil alone. The dosage of the administered compound amounted to 20 mg./kg. body weight. 30 Minutes later, the animals inhaled twice, at an interval of 10 minutes, in each case for 20 seconds, a one percent ovalbumin solution, the substance to which they had been sensitised 3 weeks previously. The extent of the resulting bronchial obstruction was also determined whole body plethysmographically in 2 minute intervals for the period of twice 10 minutes (for the method see: Dorsch W, Walter O., Rosmanith J.: Continuous Recording of Intrapulmonary "Compressed Air" as a Sensitive Noninvasive Method of Measuring Branchial Obstruction in Guinea Pigs, Pflugers Arch. 391: 236-241 (1981)). […]

[2] = tested on: thromboxane biosynthesis of thrombin-stimulated platelet-rich plasma; experiment: Inhibition of the thromboxane biosynthesis of thrombin-stimulated platelet-rich plasma; type: cell-based, human; details: 0.001 mg/ml to 1.0 mg/ml, 15 min
Method: The enzyme-inhibiting action of the compounds were determined in vitro; use of the mixture of compounds 1) and 2).
From a human donor was obtained platelet-rich plasma by the usual method and adjusted to a platelet count of […]. This plasma was incubated either with a solvent (1% dimethyl sulphoxide (DMSO) -physiological common salt solution) or with various concentrations of the compounds (s. Table II).
5 Minutes later, the platelets were stimulated with thrombin (1 or 10 International Units=I.U.) at 37° C. After 15 minutes, the reaction was stopped with ice-cold methanol (volume ratio 1:1), thereafter separated by 10 minutes centrifuging at 3000 U/min. (4° C.).

| Compound | Asthmatic reaction to the inhalation of an antigen [1] | maximum dosage-dependent suppression of the thromboxane B2 biosynthesis [2] |
| --- | --- | --- |
| CS[S+](C)[O-] (stereo not shown) [compound 3, methylthiosulphinic acid methyl ester] | clearly weaken the asthmatic reaction | 61% |
| [O-][S+](Sc1ccccc1)c1ccccc1 (stereo not shown) [compound 4, phenylthiosulphinic acid phenyl ester] | clearly weaken the asthmatic reaction | 76% |
